In ChEMBL document CHEMBL1134825, “Semi-synthesis of 2-deoxo- and 3-epi-paraherquamide A” (Bioorg Med Chem Lett, 2001):
Calls of active or inactive are those of the source. No cut-off for these calls is given here.

How the values were obtained:
helminth = test: Compound was tested for antihelminthic activity; No activity; assay type: functional
[1] = Lethal dose in mice was determined; assay type: toxicity, organism-based; conditions: mouse, in vivo
[2] = Lethal dose in dog was determined; assay type: toxicity, organism-based, Canis lupus familiaris; conditions: in vivo

CN1C(=O)[C@]23CC4C1(CN2CC[C@@]3(C)O)CC1(C(=O)Nc2c1ccc1c2OC=CC(C)(C)O1)C4(C)C (stereo partly drawn)
Activity (helminth): inactive

CN1C(=O)[C@]23C[C@@H]4C(C)(C)[C@@]5(C[C@@]41CN2CC[C@@]3(C)O)C(=O)Nc1c5ccc2c1OC=CC(C)(C)O2 [Paraherquamide A]
LD50 [1]: < 15 mg/kg | LD50 [2]: 0.5 mg/kg
